Calls of active or inactive are those of the source. The calls are words filed in the database; no cut-off is given here.
Experiments:
[1] = Antiinflammatory activity in human THP1 cells assessed as inhibition of PMA-induced TNFalpha secretion at 10 uM preincubated for 2 hrs followed by PMA addition measured after 48 hrs by ELISA; format: functional; details: THP-1
THP-1 [2] = experiment: (§1) Antiinflammatory activity in human THP1 cells assessed as inhibition of PMA-induced IL-1beta secretion at 10 uM preincubated for 2 hrs followed by PMA addition measured after 48 hrs by ELISA; format: functional
THP-1 [3] = experiment: (§2) Antiinflammatory activity in human THP1 cells assessed as inhibition of PMA-induced MCP-1 secretion at 10 uM preincubated for 2 hrs followed by PMA addition measured after 48 hrs by ELISA; format: functional
[4] = Cytotoxicity against human THP1 cells assessed as cell viability at 20 uM after 48 hrs by tryphan blue dye exclusion assay relative to control; format: functional; details: THP-1, 48 h, read-out: Activity
THP-1 [5] = experiment: Inhibition of PMA-induced MMP9 transcript level in human THP1 cells at 15 uM preincubated for 2 hrs followed by PMA addition measured after 24 hrs by RT-PCR analysis; format: functional, cell-based
THP-1 [6] = experiment: Inhibition of PMA-induced monocyte to macrophage differentiation in human THP1 cells assessed as reduction in MMP9 enzyme activity at 15 uM preincubated for 2 hrs followed by PMA addition measured after 48 hrs by gelatin zymographic analysis; format: functional, cell-based
THP-1 [7] = experiment: Inhibition of PMA-induced monocyte/macrophage invasion in human THP1 cells at 15 uM preincubated for 2 hrs followed by PMA addition measured after 48 hrs by collagen-coated Boyden chamber invasion assay; format: functional, cell-based
THP-1 [8] = experiment: Inhibition of PMA-induced monocyte to macrophage differentiation in human THP1 cells assessed as reduction in MMP2 enzyme activity at 15 uM preincubated for 2 hrs followed by PMA addition measured after 48 hrs by gelatin zymographic analysis; format: functional, cell-based
[9] = as §1; format: functional; details: THP-1
[10] = as §2; format: functional; details: THP-1
THP-1 [11] = experiment: Antiinflammatory activity in human THP1 cells assessed as inhibition of PMA-induced COX2 mRNA level preincubated for 2 hrs followed by PMA addition measured after 48 hrs by RT-PCR analysis; format: functional, cell-based
THP-1 [12] = experiment: Antiinflammatory activity in human THP1 cells assessed as inhibition of PMA-induced TNFalpha secretion preincubated for 2 hrs followed by PMA addition measured after 48 hrs by ELISA; format: functional, cell-based
THP-1 [13] = experiment: Antiinflammatory activity in human THP1 cells assessed as inhibition of PMA-induced IL-1beta secretion preincubated for 2 hrs followed by PMA addition measured after 48 hrs by ELISA; format: functional, cell-based
THP-1 [14] = experiment: Antiinflammatory activity in human THP1 cells assessed as inhibition of PMA-induced MCP-1 secretion preincubated for 2 hrs followed by PMA addition measured after 48 hrs by ELISA; format: functional, cell-based
THP-1 [15] = experiment: Inhibition of PMA-induced monocyte to macrophage differentiation in human THP1 cells assessed as reduction in cell adherence at 15 uM preincubated for 2 hrs followed by PMA addition measured after 48 hrs by phase contrast microscopic analysis; format: functional, cell-based
THP-1 [16] = experiment: Inhibition of PMA-induced monocyte to macrophage differentiation in human THP1 cells assessed as reduction in cell size at 15 uM preincubated for 2 hrs followed by PMA addition measured after 48 hrs by mitotracker dye-based confocal microscopic analysis; format: functional
THP-1 [17] = experiment: Inhibition of PMA-induced monocyte to macrophage differentiation in human THP1 cells assessed as reduction in LOX-1 transcript level at 15 uM preincubated for 2 hrs followed by PMA addition measured after 24 hrs by RT-PCR analysis; format: functional, cell-based
THP-1 [18] = experiment: Inhibition of PMA-induced monocyte to macrophage differentiation in human THP1 cells assessed as reduction in CD-36 transcript level at 15 uM preincubated for 2 hrs followed by PMA addition measured after 24 hrs by RT-PCR analysis; format: functional, cell-based
THP-1 [19] = experiment: Inhibition of PMA-induced monocyte to macrophage differentiation in human THP1 cells assessed as reduction in lysosomal activity at 15 uM preincubated for 2 hrs followed by PMA addition measured after 48 hrs by lysotracker dye-based fluorescence microscopic analysis; format: functional, cell-based
THP-1 [20] = experiment: Inhibition of PMA-induced MMP1 transcript level in human THP1 cells at 15 uM preincubated for 2 hrs followed by PMA addition measured after 24 hrs by RT-PCR analysis; format: functional, cell-based

Structure (SMILES) | inhibition at 10 µM [1] [%] | inhibition (THP-1 [2]) | inhibition (THP-1 [3]) | viability at 20 µM [4] [%] | inhibition (THP-1 [5]) | inhibition (THP-1 [6]) | inhibition (THP-1 [7]) | inhibition (THP-1 [8]) | inhibition at 10 µM [9] [%] | inhibition at 10 µM [10] [%] | inhibition (THP-1 [11]) | inhibition (THP-1 [12]) | inhibition (THP-1 [13]) | inhibition (THP-1 [14]) | inhibition (THP-1 [15]) | inhibition (THP-1 [16]) | inhibition (THP-1 [17]) | inhibition (THP-1 [18]) | inhibition (THP-1 [19]) | inhibition (THP-1 [20])
CN1C(C(=O)/C=C/c2cn(-c3cccc(F)c3)nn2)=C(O)c2ccccc2S1(=O)=O | 48.3 | inactive | inactive | 93 | – | – | – | – | – | – | – | – | – | – | – | – | – | – | – | –
CN1C(C(=O)/C=C/c2cn(CC(=O)Nc3cccc(Cl)c3)nn2)=C(O)c2ccccc2S1(=O)=O | 91.1 | – | – | 98.2 | Active | Active | Active | inactive | 80.4 | 84 | Active | Dose-dependent effect | Dose-dependent effect | Dose-dependent effect | Active | Active | Active | Active | Active | Active

Reference: ChEMBL document CHEMBL3751784, “Synthesis of novel 1-substituted triazole linked 1,2-benzothiazine 1,1-dioxido propenone derivatives as potent anti-inflammatory agents and inhibitors of monocyte-to-macrophage differentiation” (2015)
